The source of these data is publication PMC3135573 (Analytical biochemistry, 2011).

SMILES strings stand for the structures. Like-named read-outs stand apart in the source and are kept apart here. Marks after values point to notes of the source that are not given here.

Assay [1] deals with T1, BioA (Mycobacterium tuberculosis, UniProt P9WQ81). Type of assay: biochemical.
In assay [2] the target is T1, BioA. The following applies: biodisc assay ref 37; cited from earlier work.
Assay [3] concerns the target T1, BioA. The following applies: cited from earlier work.

T1 sequence (P9WQ81 whole entry, looked up): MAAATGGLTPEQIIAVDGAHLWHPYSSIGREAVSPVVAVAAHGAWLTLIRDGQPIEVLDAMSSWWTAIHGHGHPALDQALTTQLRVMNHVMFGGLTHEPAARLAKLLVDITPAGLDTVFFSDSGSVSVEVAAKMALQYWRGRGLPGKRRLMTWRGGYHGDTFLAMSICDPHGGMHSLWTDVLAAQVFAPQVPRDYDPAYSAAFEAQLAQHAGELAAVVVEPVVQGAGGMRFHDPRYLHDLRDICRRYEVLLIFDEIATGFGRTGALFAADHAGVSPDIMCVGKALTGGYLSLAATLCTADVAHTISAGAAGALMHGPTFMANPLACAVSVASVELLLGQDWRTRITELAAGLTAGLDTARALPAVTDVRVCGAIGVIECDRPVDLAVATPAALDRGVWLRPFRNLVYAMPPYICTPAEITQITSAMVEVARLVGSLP

For `O[C@@H](CS)[C@@H](O)CS` (racemic) [DTT, dithiothreitol], at BioA [1] (addition of 2 mM DTT), the “decrease of the initial velocity” value is on record as 18%. Take `C[S+](CC[C@H](N)C(=O)[O-])C[C@H]1O[C@@H](n2cnc3c(N)ncnc32)[C@H](O)[C@@H]1O` (stereo partly drawn) [SAM, S-adenosyl methionine]: the KmSAM at BioA [1] (this study, 50 nM BioA, 12.5 μM KAPA, SAM 0.12–15 mM) is recorded as 1.17 ± 0.06 mM; at BioA [2], 1.4 ± 0.3 ^a mM. Consider `C[C@H](N)C(=O)CCCCCC(=O)O.Cl` [KAPA, (S)-8-Amino-7-oxononanoic acid hydrochloride salt], for which the KmKAPA is 1.9 ± 0.1 µM on BioA [1] (this study, 50 nM BioA, 5 mM SAM, KAPA 0–12.5 μM) and 1.3 ± 0.3 ^a μM at BioA [2]. Take `C[C@@H](N)C(=O)CCCCCC(=O)O` [(R)-KAPA]: the “inhibition of BioA (in words)” value at BioA [3] is “potent inhibitor of BioA”.
